# Data taken from US20150148311A1, “NON-SYSTEMIC TGR5 AGONISTS” (Ardelyx, Inc., priority 2011, published 2015).
# Experiments:
# human TGR5 = target: T1, human TGR5 (Homo sapiens, UniProt Q8TDU6); experiment: Cell-based TGR5 assay, HEK293 cells stably expressing human TGR5, cAMP by HTRF; conditions: HEK293 cells stably expressing human TGR5, 30 min at 37 C, 0.05 nM to 10 μM; for EC50: read-out: pEC50 Human TGR5 (converted)
# T1 construct: expressed in transfected cells
# T1 sequence (Q8TDU6 1-330): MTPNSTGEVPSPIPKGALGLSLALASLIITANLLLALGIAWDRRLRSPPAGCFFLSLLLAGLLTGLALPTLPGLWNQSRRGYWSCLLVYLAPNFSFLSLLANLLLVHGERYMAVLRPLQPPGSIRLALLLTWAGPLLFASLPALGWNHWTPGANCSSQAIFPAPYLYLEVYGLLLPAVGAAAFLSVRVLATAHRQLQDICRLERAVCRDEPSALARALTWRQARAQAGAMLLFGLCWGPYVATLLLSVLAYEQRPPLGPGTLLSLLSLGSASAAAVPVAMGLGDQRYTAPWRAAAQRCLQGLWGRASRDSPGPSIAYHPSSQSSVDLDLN
# In short: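 cAMP HTRF read-out, converted to concentration via standard curve, after a 30 min, 37 °C compound exposure in HBSS with 10 mM HEPES pH 7.4 and 0.5 mM IBMX, compounds serially diluted 3-fold from 10 mM DMSO stock then 100-fold. Cells: stable human TGR5 HEK293, or NCI-H716 expressing TGR5 endogenously.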
# [1] = target: T2, endogenously expressed TGR5 in NCI H716 (Homo sapiens, UniProt Q8TDU6); experiment: Cell-based TGR5 assay, NCI-H716 cells endogenously expressing human TGR5, cAMP by HTRF; conditions: 30 min at 37 C, 22 nM to 50 μM, read-out: pEC50 endogenously expressed TGR5 in NCI H716 (converted)
# T2 construct: human caecum carcinoma cell line NCI-H716 which endogenously expresses human TGR5; endogenous in cells; host or cells: NCI-H716
# T2 sequence (Q8TDU6 1-330): T1 sequence (Q8TDU6 1-330)
# Protocol: Two primary cell based screens were performed. The first utilized HEK293 cells stably transfected to heterologously express human TGR5. The second screen used the human caecum carcinoma cell line NCI-H716 which endogenously expresses human TGR5. In both assays, cells are treated with candidate TGR5 activators and assessed for the increased intercellular levels of cAMP. […]
# TGR5-mediated cAMP generation was measured using a homogeneous time resolved fluorescence (HTRF) detection method (Cisbio). Test compounds were dissolved in DMSO to a final concentration of 10 mM. Serial 3-fold dilutions of the stock solution were made in DMSO, and these solutions were diluted 100-fold into Hanks Balanced Salt Solution supplemented with 10 mM HEPES pH 7.4 and 0.5 mM isobutyl methylxanthine (IBMX). Prior to assay, culture medium was replaced with fresh medium, and test compounds diluted in HBSS/HEPES/IBMX were added to the cells and incubated at 37° C. for 30 minutes.
# Following incubation with test compounds, cAMP was detected through the successive addition of cAMP labeled with the modified allophyocyanin dye d2 (cAMP-d2) and cryptate-labeled anti-cAMP in lysis buffer, and reading HTRF per the manufacturer's instructions. A standard curve was used to convert the raw HTRF data into [cAMP].
# [2] = Compound concentration in gall bladder, LC-MS/MS, 8 h post dose; type: in vivo; conditions: male, C57BL/6, mouse, with contents, mice, 30 mg/kg, gallbladder homogenate, read-out: Mean Example Gallbladder Concentration
# Protocol: (§1) Eight hours later, each mouse was heavily anesthetized with isoflurane, the peritoneal cavity was opened and the gallbladder, with its entire contents, was carefully excised and weighed. Blood was collected from the left ventricle of the heart and processed to plasma in EDTA-coated tubes containing aprotinin and DPPIV inhibitor for measurement of total GLP-1 (K150FCC; Meso Scales Discovery, Gaithersburg Md.).
# Compound concentrations in the gall bladder were determined as follows: each mouse was heavily anesthetized with isoflurane, the peritoneal cavity was opened and the gallbladder, with its entire contents, was carefully excised. After harvest, gall bladders were homogenized in 100 μL water using a micro-homogenizer. Samples of homogenate were diluted 1:5 in water and precipitated with three volumes of neat acetonitrile. After centrifugation, supernatants were analyzed by LC-MS/MS. The level of test compound present in gall bladder samples was interpolated from a standard curve for each individual compound prepared in a matrix of gallbladder homogenate from vehicle treated animals.
# [3] = Compound plasma concentration, LC-MS/MS, 8 h post dose; type: in vivo; conditions: male, C57BL/6, mouse, mice, 30 mg/kg, plasma, read-out: Mean Example Plasma Concentration
# Protocol: as §1
# Plasma samples were treated with acetonitrile containing an internal standard, precipitated proteins removed by centrifugation. Supernatants were analyzed by LC-MS/MS and compound concentrations were determined by interpolated from a standard curve prepared in plasma.
SMILES,EC50 (human TGR5) [µM],EC50 [1] [µM],concentration at 8 h [2] [µM],pEC50 Human TGR5 (human TGR5),concentration at 8 h [3] [ng/mL]
"CC(OC1(C(=O)N2CCN(C3CC3)c3ccccc32)CC1)c1cc(Cl)ccc1Cl (centres unmarked) [Example 94, (4-cyclopropyl-3,4-dihydroquinoxalin-1(2H)-yl)(1-(1-(2,5-dichlorophenyl)ethoxy)cyclopropyl)methanone]",1.26 to 50.1,1.26 to 50.1,–,–,–
"O=C(CCc1cc(Cl)c(CNC2(C(=O)N3CCN(C4CC4)c4ccccc43)CC2)cc1Cl)NCCOCCOCCNC(=O)CCc1cc(Cl)c(CNC2(C(=O)N3CCN(C4CC4)c4ccccc43)CC2)cc1Cl [Example 95, N,N′-(2,2′-(ethane-1,2-diylbis(oxy))bis(ethane-2,1-diyl))bis(3-(2,5-dichloro-4-((1-(4-cyclopropyl-1,2,3,4-tetrahydroquinoxaline-1-carbonyl)cyclopropylamino)methyl)phenyl)propanamide)]",< 0.1,1.26 to 50.1,–,–,–
"O=C(NCCCCc1cc(Cl)c(CN2CSC[C@H]2C(=O)N2CCN(C3CC3)c3ccccc32)cc1Cl)NC[C@@H](O)[C@H](O)[C@@H](O)[C@@H](O)CO [Example 177, 1-(4-(2,5-dichloro-4-(((R)-4-(4-cyclopropyl-1,2,3,4-tetrahydroquinoxaline-1-carbonyl)thiazolidin-3-yl)methyl)phenyl)butyl)-3-((2R,3S,4S,5S)-2,3,4,5,6-pentahydroxyhexyl)urea]",–,–,0.1,–,–
"O=C(N1CCN(C2CC2)c2ccccc21)C1(OCc2cc(Cl)ccc2Cl)COC1 [Example 179, (4-cyclopropyl-3,4-dihydroquinoxalin-1(2H)-yl)(3-(2,5-dichlorobenzyloxyl)oxetan-3-yl)methanone]",< 0.1,0.126 to 1,–,–,–
"O=C(N1CCN(C2CC2)c2ccccc21)C1(CSc2cc(Cl)ccc2Cl)CC1 [Example 180, (4-cyclopropyl-3,4-dihydroquinoxalin-1(2H)-yl)(1-((2,5-dichlorophenylthio)methyl)cyclopropyl)methanone]",< 0.1,0.126 to 1,–,–,–
CN(C[C@H](O)[C@@H](O)[C@H](O)[C@H](O)CO)C(=O)NCCOc1cc(Cl)c(CN2CSC[C@H]2C(=O)N2CCN(C3CC3)c3ccccc32)cc1Cl [Example 184],0.126 to 1,0.126 to 1,–,–,–
CN(C[C@H](O)[C@@H](O)[C@H](O)[C@H](O)CO)C(=O)NCCOc1cc(Cl)c(CNC2(C(=O)N3CCN(C4CC4)c4ccccc43)CC2)cc1Cl [Example 185],0.126 to 1,1.26 to 50.1,–,–,–
CN(C[C@H](O)[C@@H](O)[C@H](O)[C@H](O)CO)C(=O)NCCCCOc1cc(Cl)c(CNC2(C(=O)N3CCN(C4CC4)c4ccccc43)CC2)cc1Cl [Example 186],0.126 to 1,1.26 to 50.1,–,–,–
O=C(O)CCCOc1cc(Cl)c(CNC2(C(=O)N3CCN(C4CC4)c4ccccc43)CC2)cc1Cl [Example 187],0.126 to 1,1.26 to 50.1,–,–,–
CN(C[C@H](O)[C@@H](O)[C@H](O)[C@H](O)CO)C(=O)NCCOc1cc(Cl)c(CNC2(C(=O)N3CCN(C4CC4)c4ccccc43)CC2)cc1Cl [Example 188],–,0.126 to 1,–,B (B is a pEC50 of 6-6.9),–
CN(C[C@H](O)[C@@H](O)[C@H](O)[C@H](O)CO)C(=O)CCCOc1cc(Cl)c(CN2CSC[C@H]2C(=O)N2CCN(C3CC3)c3ccccc32)cc1Cl [Example 189],< 0.1,0.126 to 1,–,–,–
O=C(NCCCc1cc(Cl)c(CNC2(C(=O)N3CCN(C4CC4)c4ccccc43)CC2)cc1Cl)NCCOCCOCCNC(=O)NCCCc1cc(Cl)c(CNC2(C(=O)N3CCN(C4CC4)c4ccccc43)CC2)cc1Cl [Example 212],1.26 to 50.1,1.26 to 50.1,–,–,–
CN(C[C@H](O)[C@@H](O)[C@H](O)[C@H](O)CO)C(=O)NCCCCc1ccc(Cl)c(CNC2(C(=O)N3CCN(C4CC4)c4ccccc43)CC2)c1 [Example 213],0.126 to 1,1.26 to 50.1,–,–,–
CN(C[C@H](O)[C@@H](O)[C@@H](O)[C@H](O)CO)C(=O)NCCCc1cc(Cl)c(CNC2(C(=O)N3CCN(C4CC4)c4ccccc43)CC2)cc1Cl [Example 214],0.126 to 1,0.126 to 1,–,–,–
CN(C[C@H](O)[C@@H](O)[C@H](O)[C@H](O)CO)C(=O)CCc1ccc(Cl)c(CN2CSC[C@H]2C(=O)N2CCN(C3CC3)c3ccccc32)c1 [Example 215],0.126 to 1,1.26 to 50.1,–,–,–
CN(C[C@H](O)[C@@H](O)[C@H](O)[C@H](O)CO)C(=O)NCCCc1ccc(Cl)c(CN2CSC[C@H]2C(=O)N2CCN(C3CC3)c3ccccc32)c1 [Example 217],0.126 to 1,1.26 to 50.1,–,–,–
CN(C[C@H](O)[C@@H](O)[C@H](O)[C@H](O)CO)C(=O)CCCCc1cc(Cl)c(CNC2(C(=O)N3CCN(C4CC4)c4ccccc43)CC2)cc1Cl [Example 219],< 0.1,< 0.1,–,–,–
CN(C[C@H](O)[C@@H](O)[C@@H](O)[C@H](O)CO)C(=O)CCCCc1cc(Cl)c(CNC2(C(=O)N3CCN(C4CC4)c4ccccc43)CC2)cc1Cl [Example 220],< 0.1,< 0.1,–,–,–

# The remaining lines, values ahead:
EC50 (human TGR5) [µM],EC50 [1] [µM],concentration at 8 h [2] [µM],pEC50 Human TGR5 (human TGR5),concentration at 8 h [3] [ng/mL],SMILES
0.126 to 1,> 50.1,–,–,–,O=C(N1CCN(C2CC2)c2ccccc21)C1(OCc2cc(Cl)ccc2Cl)CCCCC1 [Example 242]
0.126 to 1,1.26 to 50.1,–,–,–,CC(C(=O)N1CCN(C2CC2)c2ccccc21)N(C)Cc1cc(Cl)ccc1Cl (centres unmarked) [Example 243]
1.26 to 50.1,1.26 to 50.1,–,–,–,CC(C(=O)N1CCN(C2CC2)c2ccccc21)N1CCc2ccc(Cl)cc2C1 (centres unmarked) [Example 244]
1.26 to 50.1,1.26 to 50.1,–,–,–,Cc1ccc(Cl)c(CN2CCC[C@H]2C(=O)N2CCN(C3CC3)c3ccccc32)c1F [Example 245]
0.126 to 1,1.26 to 50.1,–,–,–,COc1ccc(COC2(C(=O)N3CCN(C4CC4)c4ccccc43)CC2)c(Cl)c1 [Example 246]
1.26 to 50.1,1.26 to 50.1,–,–,–,O=C(N1CCN(C2CC2)c2ccccc21)C1(OCc2c(Cl)cccc2Cl)CC1 [Example 247]
1.26 to 50.1,1.26 to 50.1,–,–,–,O=C(N1CCN(C2CC2)c2ccccc21)C1(OCc2cc(Cl)cc(OC(F)(F)F)c2)CC1 [Example 248]
1.26 to 50.1,1.26 to 50.1,–,–,–,Cc1ccc(Cl)c(COC2(C(=O)N3CCN(C4CC4)c4ccccc43)CC2)c1F [Example 249]
< 0.1,< 0.1,–,–,–,O=C(N1CCN(C2CC2)c2ccccc21)C1(NCc2cc(Cl)ccc2C(F)(F)F)CC1 [Example 254]
< 0.1,< 0.1,–,–,–,O=C(N1CCN(C2CC2)c2ccccc21)C1(NCc2cc(C(F)(F)F)ccc2Cl)CC1 [Example 255]
0.126 to 1,0.126 to 1,–,–,–,COc1cc(Cl)c(CNC2(C(=O)N3CCN(C4CC4)c4ccccc43)CC2)cc1Cl [Example 256]
< 0.1,0.126 to 1,–,–,–,CN(C(=O)C1(OCc2cc(Cl)c(CCCCNC(=O)NC[C@H](O)[C@@H](O)[C@H](O)[C@H](O)CO)cc2Cl)CC1)c1ccccc1OC1CC1 [Example 257]
< 0.1,0.126 to 1,–,–,–,O=C([C@@H]1SCCN1Cc1cc(Cl)ccc1C(F)(F)F)N1CCN(C2CC2)c2ccccc21 [Example 268]
–,–,–,–,7.6,O=C(O)CN(CCCCCc1cc(Cl)c(CN2CSC[C@H]2C(=O)N2CCN(C3CC3)c3ccccc32)cc1Cl)CC(=O)O [Example 276]
